# Measured values taken from US10281451B2, “Method of determining the viability of at least one cell” (The Regents of the University of Michigan, priority 2012, dated 2019).
# System: EVPOME tissue-engineered constructs (primary human oral keratinocytes)
# Test: Quantitative histology scoring (H&E) of rapamycin-treated tissue-engineered constructs
# Type: cell-based
# Excerpt: A section was sliced across the construct, near the edge, fixed in 10% phosphate buffered formalin, and embedded in paraffin for hematoxylin and eosin (H&E) histology and immunohistochemistry (IHC). All the engineered tissues were sectioned for histological assessment and some for IHC imaging. Some engineered tissues were randomly selected for punch biopsies for WST-1 assay. The remaining intact constructs were non-invasively assessed with label-free optical imaging. For each construct, three sites were randomly selected for optical imaging. A tissue-engineered construct consists of three layers: keratin, living cellular, and dermal equivalent layer. Thus, for each site, one to two optical images were measured at lower and upper depths for the proliferating basal layer and the differentiating cellular layer respectively.
# 10 batches tissue-engineered constructs manufactured with cells from 10 independent patients were studied: 5 batches for the rapamycin experiment and 5 batches for the thermal-stress experiment. For the rapamycin experiment, 2 nM rapamycin was added in the medium at the cell culture stage for five days prior to tissue-stage culture and/or the tissue culture stage. Therefore, a total of four experimental conditions were created in the rapamycin experiment: • 1. Control+control: no rapamycin was added to the cultures during the two stages. • 2. Control+rapa: no rapamycin was added to the first cell culture stage medium; rapamycin was added to the second tissue culture stage medium. • 3. Rapa+control: rapamycin was added to the first cell culture stage medium; no rapamycin was added to the second tissue culture stage medium. • 4. Rapa+rapa: rapamycin was added to the medium used in both the culture stages.
# All H&E histology slides were assessed by a panel of three blinded expert readers. Classification criteria were previously developed and detailed, where a viability score of 1 (least viable), 2, 3, 4, or 5 (most viable) was used. The classification criteria included the basal cell layer health, the construct cellular organization, and the keratin layer structural quality. The readers individually assigned a score to each EVPOME histology slide, while blinded to the construct condition and to the other readers' scores.
# Quantitative histology scoring was performed to assess tissue morphology. Two groups of cultured cells were categorized: well-growing culture and poorly-growing culture. The well-growing and the poorly-growing cultures were defined by their control+control histology scores. A control+control score >3 is defined as well-growing. A control+control score <=3 is defined as poorly growing.
smiles,measurement,setting,value
CO[C@H]1C[C@@H]2CC[C@@H](C)[C@@](O)(O2)C(=O)C(=O)N2CCCC[C@H]2C(=O)O[C@H]([C@H](C)C[C@@H]2CC[C@@H](O)[C@H](OC)C2)CC(=O)[C@H](C)/C=C(\C)[C@@H](O)[C@@H](OC)C(=O)[C@H](C)C[C@H](C)/C=C/C=C/C=C/1C [Rapamycin],histology score,"control+rapa construct (2 nM rapamycin in tissue culture stage only), poorly-growing culture, score 1 to 5",<= 3
same,histology score,"rapa+control construct (2 nM rapamycin in cell culture stage only), poorly-growing culture, score 1 (least viable) to 5 (most viable)",4.7
same,histology score,"rapa+rapa construct (2 nM rapamycin in both culture stages), poorly-growing culture, score 1 to 5",<= 3
same,histology score,"well-growing culture, all four constructs incl. rapa+control, control+rapa, rapa+rapa, score 1 to 5",> 3
